From patent US7829578B1, “Aromatic ketones and uses thereof” (Oregon Health & Science University, priority 2005, dated 2010)
pIC50: −log10 of the molar value. Like-named read-outs stand apart in the source and are kept apart here.

Key:
[1] = test system: multi-drug resistant strains of Plasmodium falciparum (W2, Dd2, 7G8 and Tm93C1088); experiment: In vitro antimalarial activity against multi-drug resistant strains; assay type: cell-based; settings: for IC50 values, stated in words: against multidrug resistant Plasmodium falciparum parasites; for pIC50: Plasmodium falciparum
Method: (§1) Four different laboratory strains of P. falciparum were cultured in human erythrocytes by standard methods under a low oxygen atmosphere (5% O2, 5% CO2, 90% N2) in an environmental chamber. The culture medium was RPMI 1640, supplemented with 25 mM Hepes buffer, 25 mg/liter gentamicin sulfate, 45 mg/liter hypoxanthine, 10 mM glucose, 2 mM glutamine, and 0.5% Albumax II (complete medium). The parasites were maintained in fresh human erythrocytes suspended at a 2% hematocrit in complete medium at 37° C. Stock cultures were sub-passaged every 3 to 4 days by transfer of infected red cells to a flask containing complete medium and uninfected erythrocytes.
(§2) In vitro antimalarial activity of the test compounds was assessed by a fluorescence-based method described previously (Smilkstein et al., 2004, Antimicrobial Agents and Chemotherapy, Vol. 48, pgs. 1803-1806) (reference format?). The studies were set up in triplicate in 96 well plates with two-fold dilutions of each test compound across the plate in a total volume of 100 μl and at a final red blood cell concentration of 2% (v/v). Stock solutions of each drug were prepared by dissolving in DMSO at 10 mM. […] In every case, an additional determination was performed to ensure bracketing of the IC50 value by at least an order of magnitude.
(§3) Automated pipeting and dilution was carried out by a programmable Precision 2000 robotic station (Bio-Tek, Winooski, Vt.). An initial parasitemia of 0.2% was attained by addition of normal uninfected red cells to a stock culture of asynchronous parasite infected red cells (PRBC). The plates were incubated for 72 hrs at 37° C. in an atmosphere of 5% CO2, 5% O2, and 90% N2. After this period, the SyBrGreen I dye-detergent mixture (100 μl) was added and the plates were incubated at room temperature for an hour in the dark and then placed in a 96-well fluorescence plate reader (Gemini-EM, […]) for analysis with excitation and emission wavelength bands centered at 497 and 520 nm, respectively.

[2] = test system: Plasmodium parasitized red blood cells; experiment: Oxygen consumption (respiration) by parasitized red blood cells (FIG. 3); assay type: cell-based; settings: compared with atovaquone at equimolar concentrations
From the text: While not intending to be limited to any mechanism of action, it is contemplated that some of the presently described compounds may act through inhibiting parasite growth through inhibition of the enzyme cytochrome b.

[3] = test system: drug susceptible (D6) strain of Plasmodium falciparum; experiment: In vitro antimalarial MSF (SyBrGreen I fluorescence) assay, D6 strain; assay type: cell-based; settings: for improvement of antimalarial potency by the QZ group: compared to IC50 of the parent compound without the QZ side chain
Method: as §1, §2, §3

[4] = test system: multidrug resistant Dd2 strain of P. falciparum; experiment: Isobolar analysis of combination with clopidol in vitro (FIG. 4); assay type: cell-based, Plasmodium falciparum
Method: Values below the theoretical straight line of addition are considered to be indicative of synergism. This study was performed with the multidrug resistant Dd2 strain of P. falciparum.

[5] = test system: multi-drug resistant strain (W2) of Plasmodium falciparum; experiment: In vitro antimalarial activity, W2 strain; assay type: cell-based; settings: read-out: IC50 against multi-drug resistant strain (W2)
Method: as §1
In vitro antimalarial activity of the test compounds was assessed by a fluorescence-based method described previously (Smilkstein et al., 2004, Antimicrobial Agents and Chemotherapy, Vol. 48, pgs. 1803-1806) (reference format?). […]
Automated pipeting and dilution was carried out by a programmable Precision 2000 robotic station (Bio-Tek, Winooski, Vt.). […] After this period, the SyBrGreen I dye-detergent mixture (100 μl) was added and the plates were incubated at room temperature for an hour in the dark and then placed in a 96-well fluorescence plate reader (Gemini-EM, […]) for analysis with excitation and emission wavelength bands centered at 497 and 520 nm, respectively.

[6] = test system: multi-drug resistant (Dd2) strain of Plasmodium falciparum; experiment: In vitro antimalarial MSF (SyBrGreen I fluorescence) assay, Dd2 strain; assay type: cell-based; settings: Plasmodium falciparum, DD2, Table 3
Method: as §1, §2, §3

[7] = test system: Murine splenic lymphocytes; experiment: MSLCs-concanavalin A induced proliferation (blastogenesis) cytotoxicity assay, Alamar Blue fluorescence; assay type: cell-based; settings: Mus musculus, Splenic lymphocyte, Table 3, 48-hr MSLCs-concanavalin A induced proliferation
[8] = Plasmodium falciparum, D6, read-out: IC50 against drug sensitive (D6) strain

With `O=C1C=C(OCCCCC(F)(C(F)(F)F)C(F)(F)F)C(=O)c2ccccc21` [NAP 005, 2-(5,6,6,6-tetrafluoro-5-trifluoromethyl-hexyloxy)-[1,4]naphthoquinone] the “IC50 values, stated in words” value [1] was “low nanomolar range” and the “inhibition of oxygen consumption (respiration)” value (“inhibition of oxygen consumption” below) [2] was “does not inhibit oxygen consumption”.

For `O=c1c2ccc(Cl)cc2[nH]c2cc(OCCCCCC(F)(F)F)ccc12` [No. 21, 3-(6,6,6-trifluorohexyloxy)-6-chloroacridone], the pIC50 [1] was 9.80, the pIC50 [3, 8] was 9.80 and the “improvement of antimalarial potency by the QZ group” value (“improvement of antimalarial potency” below) [3] was “more than 10,000 fold”.

With `COc1ccc2c(=O)c(CCCCCC(F)(F)F)c(C)[nH]c2c1` [2-methyl-3-(6,6,6-trifluorohexyl)-7-methoxy-4(1H)-quinolone] the “inhibition of oxygen consumption” value [2] was “inhibiting oxygen consumption by Plasmodium parasitized red blood cells in similar fashion to atovaquone” and the interaction with clopidol [4] was “acting in synergy with clopidol”.

With `O=C1C=C(OCCCCC(F)(F)F)C(=O)c2ccccc21` [No. 35, 2-(5,5,5-trifluoropentyloxy)-1,4-naphthoquinone] the pIC50 [1] was about 6.88, the pIC50 [3, 8] was about 6.88 and the “improvement of antimalarial potency” value [3] was “roughly 50 fold”.

For `COc1ccc2c(=O)c(CCCCCCCCCCC(F)(F)F)c(C)[nH]c2c1` [No. 45, 2-methyl-3-(11,11,11-trifluoro-undecy1)-7-methoxy-4(1H)-quinolone], the “improvement of antimalarial potency” value [3] was “more than 1,000 fold”, the pIC50 ([3]; read-out: IC50 against drug sensitive (D6) strain) was about 9.70 and the pIC50 [5] was about 9.70.

In the case of `COc1ccc2c(=O)c(CCCCCC(F)(F)F)c(C)[nH]c2c1` [No. 44, 2-methyl-3-(6,6,6-trifluorohexyl)-7-methoxy-4(1H)-quinolone], the “IC50 values, stated in words” value [1] was “low nanomolar range” and the “inhibition of oxygen consumption” value ([2]; listed as 2-methyl-3-(6,6,6-trifluorohexyl)-7-methoxy-4-quinolone) was “equivalent to atovaquone at equimolar concentrations”.

In the case of `COc1ccc2c(=O)cc(C)[nH]c2c1` [compound 43], the pIC50 [6] was 4.86, the pIC50 [7] was under 4.60 and the pIC50 ([3]; Plasmodium falciparum, D6, Table 3, MSF assay, read-out: D6 IC50) was 5.15.

`O=c1c2ccc(O)cc2oc2cc(OCCCCCC(F)(F)F)ccc12` [3-(6,6,6-trifluorohexyloxy)-6-hydroxyxanthone] was tested, and the pIC50 [1] was about 6.15, the pIC50 [3, 8] was about 6.15 and the “improvement of antimalarial potency” value [3] was “more than 100 fold”.
